Data reported in US5296492A, “Certain chroman derivatives useful for treating symptoms caused by contraction of smooth muscles, circulatory diseases or epilepsy” (Nippon Kayaku Kabushiki Kaisha, priority 1991, dated 1994).
Where two headings read alike, the source gives them in different places.

How the values were obtained:
rat aorta = test: Spasmolytic effect in isolated rat aorta; format: cell-based, male SD rat; conditions: 20 mM KCl contraction, 37° C., maximal inhibition with papaverine hydrochloride 10^-4 M = 100, mean value±standard error, n = 3, read-out: -log IC50 (spasmolytic effect on rat aorta contracted with 20 mM KCl) (converted)
Experimental: (§1) 1. Spasmolytic effect in isolated rat aorta and dog coronary artery
The thoracic aorta of male SD rat was isolated and cut into 3 mm wide ring preparations. Each preparation was mounted in a 10 ml organ bath filled with Krebs-Henseleit solution by applying a resting tension of 1.0 g. The nutrient solution was maintained at 37° C. and aerated with a 95% O2 /5% CO2 gas. The isometric tension of the preparation was measured with a FD pickup and recorded on a recorder.
(§2) After about one hour of equilibration time, a compound of this invention was cumulatively administered to the preparation contracted with 20 mM KCl, and its spasmolytic effect was examined. The spasmolytic action of the compound of this invention was expressed as percentage of inhibition, taking the maximal inhibition obtained with papavarine hydrochloride (10^-4 M) as 100. The IC50 value (50% inhibition) for the compound of this invention was determined from the concentration-response curve fitted by non-linear regressions with a personal computer, and its potency expressed in terms of -log IC50 was shown as [mean value±standard error].

dog coronary artery = test: Spasmolytic effect in isolated dog coronary artery; format: cell-based, mongrel dogs; conditions: for spasmolytic effect on a contraction caused by 80 mM KCl (in words): potencies compared with 20 mM KCl; for IC50: Canis lupus familiaris, mean value±standard error
Experimental: as §1, §2
Ring preparations of coronary artery from mongrel dogs of either sex were prepared and isometric tension of the preparation was measured by the same method as above, except that the resting tension was adjusted to 1.5 g. For estimating the mechanism of action, the effect on the contraction caused by 80 mM KCl was also studied.

[1] = Acute toxicity in mice (up and down method); conditions: mouse, in vivo, iv
Experimental: Acute toxicity of the test drug was evaluated in mice, following intravenous administration. The LD50 of the test drug was determined using up and down method.

guinea-pig trachea = test: Bronchodilator effect in isolated tracheal smooth muscle (guinea-pig trachea, leukotriene D4 contraction); format: cell-based, Hartley male guinea-pigs
Experimental: 2. Bronchodilator effect in isolated tracheal smooth muscle
Hartley male guinea-pigs (NISSEIKEN) were stunned by a blow to the head and their tracheas were removed. Each trachea was carefully made into 20 small pieces so as not to injure them, and five pieces of them were linked together with a yarn to prepare tracheal strip chain. The preparation was suspended in 15 ml of an organ bath filled with a modified Krebs-Henseleitsolution containing indomethacin (b 5×10^-6 M) by applying a tension of 0.5 g. The solution was maintained at 35° C. and aerated with a 95% O2 /5% CO2 gas. After an equilibration time of one hour, the experiment was carried out. The results were isometrically recorded on a Multipen Recorder (R-64VL, mfd. by Rika Denki Kogyo) through a transducer (TD-112S, mfd. by Nihon Kohden) and an input box (JD-112S, mfd. by Nihon Kohden).
Each preparation was made to attain the maximal contraction with carbachol (3×10^-6 and 10^-5 M) and washed. When it reached an equilibrium, it was exposed to L-cysteine as an aminopeptidase inhibitor (3×10^-3 M). After thirty minutes, a contractive reaction was made to take place with leukotriene D4 (3×10^-9 M). When the contraction had reached a constant value, a test drug (10^-8 to 3×10^-5 M) was cumulatively applied into the bath at a dose ratio of 3. Finally, the maximal relaxation of each preparation was confirmed with papaverine.
The relaxations given by each test drug at various concentrations were converted to percentages of relaxation, taking the maximal relaxation obtained with papaverine as 100. The maximal relaxation (%) of each test drug and -log of ED30 (M) which is the dose of each test drug giving a percentage of relaxation of 30% as determined by a linear regression method from percentages of relaxation at two different doses are shown below.

[2] = 20 mM KCl contraction, n = 3 (n = 4 for Compound No. 81), read-out: -log IC50 (spasmolytic effect on dog coronary artery, 20 mM KCl) (converted)
[3] = 80 mM KCl contraction, n = 3, read-out: -log IC50 (spasmolytic effect on dog coronary artery, 80 mM KCl) (converted)

CC1(C)C=C(n2cc(CO)ccc2=O)c2cc(C#N)ccc2O1 [Compound No. 162, 6-cyano-2,2-dimethyl-4-(1,2-dihydro-2-oxo-5-hydroxymethyl-1-pyridinyl)-2H-benzo[b]pyran]
IC50 (rat aorta): 138 nM

CC1(C)C=C(n2ccc(CCCCO[N+](=O)[O-])cc2=O)c2cc(C#N)ccc2O1 [Compound No. 81, 6-cyano-2,2-dimethyl-4-{1,2-dihydro-2-oxo-4-(4-nitroxybutyl)-1-pyridinyl}-2H-benzo[b]pyran]
IC50 (rat aorta): 39.8 nM
spasmolytic effect on a contraction caused by 80 mM KCl (in words) (dog coronary artery): also exhibited a spasmolytic effect on a contraction caused by 80 mM KCl, though their potencies are lower than those against the contraction caused by 20 mM KCl
IC50 (dog coronary artery; [2]): 0.0316 nM
IC50 (dog coronary artery; [3]): 229 nM

CC1(C)C=C(n2ccc(CCCO)cc2=O)c2cc(C#N)ccc2O1 [Compound No. 192, 6-cyano-2,2-dimethyl-4-(1,2-dihydro-2-oxo-4-(3-hydroxypropyl)-1-pyridinyl}-2H-benzo[b]pyran]
IC50 (rat aorta): 1120 nM

CC1(C)C=C(n2ccc(C=O)cc2=O)c2cc(C#N)ccc2O1 [Compound No. 191, 6-cyano-2,2-dimethyl-4-(1,2-dihydro-2-oxo-4-formyl-1-pyridinyl)-2H-benzo[b]pyran]
IC50 (rat aorta): 447 nM

CC1(C)C=C(n2cc(CO[N+](=O)[O-])ccc2=O)c2cc(C#N)ccc2O1 [Compound No. 70, 6-cyano-2,2-dimethyl-4-(1,2-dihydro-2-oxo-5-nitroxymethyl-1-pyridinyl)-2H-benzo[b]pyran]
IC50 (rat aorta): 135 nM

CC1(C)C=C(n2ccc(CO[N+](=O)[O-])cc2=O)c2cc(C(F)(F)F)ccc2O1 [Compound No. 105, 6-trifluoromethyl-2,2-dimethyl-4-(1,2-dihydro-2-oxo-4-nitroxymethyl-1-pyridinyl)-2H-benzo[b]pyran]
IC50 (rat aorta): 5.89 nM

CC1(C)Oc2ccc(C#N)cc2[C@@H](n2ccc(CO[N+](=O)[O-])cc2=O)[C@@H]1O (relative stereo) [Compound No. 2, trans-3-hydroxy-6-cyano-3,4-dihydro-2,2-dimethyl-4-(1,2-dihydro-2-oxo-4-nitroxymethyl-1-pyridinyl)-2H-benzo[b]pyran]
IC50 (rat aorta): 51.3 nM

CC1(C)C=C(n2ccc(CCCCO)cc2=O)c2cc(C#N)ccc2O1 [Compound No. 193, 6-cyano-2,2-dimethyl-4-{1,2-dihydro-2-oxo-4-(4-hydroxybutyl)-1-pyridinyl}-2H-benzo[b]pyran]
IC50 (rat aorta): 1350 nM

CC1(C)C=C(n2cccc(CO)c2=O)c2cc(C#N)ccc2O1 [Compound No. 160, 6-cyano-2,2-dimethyl-4-(1,2-dihydro-2-oxo-3-hydroxymethyl-1-pyridinyl)-2H-benzo[b]pyran]
IC50 (rat aorta): 813 nM

CC1(C)C=C(n2ccc(C(CCO[N+](=O)[O-])O[N+](=O)[O-])cc2=O)c2cc(C#N)ccc2O1 (centres unmarked) [Compound No. 91, 6-cyano-2,2-dimethyl-4-{1,2-dihydro-2-oxo-4-(1,3-dinitroxypropyl)-1-pyridinyl}-2H-benzo[b]pyran]
IC50 (rat aorta): 102 nM

CC1(C)C=C(n2ccc(CO[N+](=O)[O-])cc2=O)c2cc(C#N)ccc2O1 [Compound No. 69, 6-cyano-2,2-dimethyl-4-(1,2-dihydro-2-oxo-4-nitroxymethyl-1-pyridinyl)-2H-benzo[b]pyran]
LD50 [1]: 81.2 mg/kg
IC50 (rat aorta): 3.31 nM
spasmolytic effect on a contraction caused by 80 mM KCl (in words) (dog coronary artery): also exhibited a spasmolytic effect on a contraction caused by 80 mM KCl, though their potencies are lower than those against the contraction caused by 20 mM KCl
IC50 (dog coronary artery; [2]): 8.71 nM
IC50 (dog coronary artery; [3]): 12600 nM
EC30 (guinea-pig trachea; Cavia porcellus, leukotriene D4 (3×10^-9 M), dose giving 30% relaxation, papaverine maximal relaxation = 100, value is a negative log, read-out: Relaxing action on the contraction caused by leukotriene D4: -log[EX30 (M)] (converted)): 2.24e-07 M
Emax (guinea-pig trachea; Cavia porcellus, leukotriene D4 (3×10^-9 M), test drug 10^-8 to 3×10^-5 M cumulatively, papaverine maximal relaxation = 100, read-out: Relaxing action on the contraction caused by leukotriene D4: Maximal relaxation %): 93.9%
relaxant effect on isolated guinea pig tracheal smooth muscle contracted by leukotriene D4 / bronchodilator activity (in words) (guinea-pig trachea; leukotriene D4): strong relaxant effect

CC(O[N+](=O)[O-])c1ccn(C2=CC(C)(C)Oc3ccc(C#N)cc32)c(=O)c1 (centres unmarked) [Compound No. 72, 6-cyano-2,2-dimethyl-4-{1,2-dihydro-2-oxo-4-(1-nitroxyethyl)-1-pyridinyl}-2H-benzo[b]pyran]
IC50 (rat aorta): 67.6 nM

CC1(C)C=C(n2ccc(CCCO[N+](=O)[O-])cc2=O)c2cc(C#N)ccc2O1 [Compound No. 77, 6-cyano-2,2-dimethyl-4-{1,2-dihydro-2-oxo-4-(3-nitroxypropyl)-1-pyridinyl}-2H-benzo[b]pyran]
IC50 (rat aorta): 12.6 nM
spasmolytic effect on a contraction caused by 80 mM KCl (in words) (dog coronary artery): also exhibited a spasmolytic effect on a contraction caused by 80 mM KCl, though their potencies are lower than those against the contraction caused by 20 mM KCl
IC50 (dog coronary artery; [2]): 2.14 nM
IC50 (dog coronary artery; [3]): 380 nM

CC1(C)C=C(n2ccc(CO)cc2=O)c2cc(C#N)ccc2O1 [Compound No. 161, 6-cyano-2,2-dimethyl-4-(1,2-dihydro-2-oxo-4-hydroxymethyl-1-pyridinyl)-2H-benzo[b]pyran]
IC50 (rat aorta): 525 nM

C=Cc1ccn(C2=CC(C)(C)Oc3ccc(C#N)cc32)c(=O)c1 [Compound No. 190, 6-cyano-2,2-dimethyl-4-(1,2-dihydro-2-oxo-4-vinyl-1-pyridinyl)-2H-benzo[b]pyran]
IC50 (rat aorta): 60.3 nM

CC(=O)O[C@H]1[C@H](n2ccc(CO[N+](=O)[O-])cc2=O)c2cc(C#N)ccc2OC1(C)C (relative stereo) [Compound No. 44, trans-3-acetoxy-6-cyano-3,4-dihydro-2,2-dimethyl-4-(1,2-dihydro-2-oxo-4-nitroxymethyl-1-pyridinyl)-2H-benzo[b]pyran]
IC50 (rat aorta): 6610 nM
